Results reported in the supplement of paper PMC11451515.

How the values were obtained:
Settings in all cases: 48 h
[1] = test system: SEM cells; test: AUC of viability dose-response curve (% viability x log10 dose units); higher = less sensitive
Outline: (§1)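 Medium-adapted leukemia cells in 1536-well plates, at 500 or 1000 cells/well, were incubated for 48 h at 37°C with library compounds in DMSO at 11 threefold doses from 47 μM to 0.79 nM. CellTiter-Glo One luminescence normalised per plate to DMSO and cell-free wells was fitted with a four-parameter log-logistic model over log10 doses. Area under the curve was integrated from this fit by trapezoidal rule, with curves beyond full viability scaled and failed quality-control curves removed.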

[2] = test system: NOMO1; test: as above
Outline: as §1

[3] = test system: P12-Ichikawa; test: as above
Outline: as §1

[4] = test system: SEM cells; test: cell viability relative to DMSO control; higher = less cytotoxic
Outline: (§2)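 Before seeding, each leukemia line was adapted for at least four passages in each medium. NOMO1 or SEM cells (500 cells/well) and P12-Ichikawa cells (1000 cells/well) went into 1536-well plates at 5 μl, then received library compounds in DMSO by pin dosing across 11 threefold concentrations, 47 μM to 0.79 nM. Readout was CellTiter-Glo One luminescence after 48 h at 37°C, and viability is given as a per-plate percentage of DMSO wells, with cell-free wells as background.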

[5] = test system: NOMO1; test: as above
Outline: as §2

Nc1nc(N)nc(-c2cc(Cl)ccc2Cl)n1.O=C(O)/C=C\C(=O)O
AUC of viability dose-response curve
Settings | [1] | [2] | [3]
HPLM + 10% dialyzed FBS | 447 | 472 | 447
RPMI 5 mM glucose + 10% FBS | 432 | 453 | 460
RPMI 5 mM glucose + 10% dialyzed FBS | 459 | 461 | 457

NCCS(=O)(=O)O
AUC of viability dose-response curve
Settings | [1] | [2] | [3]
HPLM + 10% dialyzed FBS | 463 | 441 | 469
RPMI 5 mM glucose + 10% FBS | 471 | 455 | 458
RPMI 5 mM glucose + 10% dialyzed FBS | 468 | 449 | 463

O=[S+]([O-])(F)Cc1ccccc1
[4], HPLM + 10% dialyzed FBS
Settings | cell viability [%]
0.000781 µM | 120
0.00234 µM | 122
0.00702 µM | 134
0.0211 µM | 122
0.0632 µM | 125
0.19 µM | 50.5
0.569 µM | 109
1.71 µM | 133
5.12 µM | 114
15.4 µM | 115
46.1 µM | 112

AUC of viability dose-response curve
Settings | [1] | [2] | [3]
HPLM + 10% dialyzed FBS | 455 | 434 | 446
RPMI 5 mM glucose + 10% FBS | 440 | 468 | 448
RPMI 5 mM glucose + 10% dialyzed FBS | 446 | 476 | 442

CN1C(=O)CCS(=O)(=O)C1c1ccc(Cl)cc1 (stereo unspecified)
AUC of viability dose-response curve
Settings | HPLM + 10% dialyzed FBS | RPMI 5 mM glucose + 10% FBS | RPMI 5 mM glucose + 10% dialyzed FBS
[2] | 447 | 472 | 459
[3] | 452 | 448 | 442

Cc1nnc(N[S+](=O)([O-])c2ccc(N)cc2)s1
AUC of viability dose-response curve
Settings | HPLM + 10% dialyzed FBS | RPMI 5 mM glucose + 10% FBS | RPMI 5 mM glucose + 10% dialyzed FBS
[1] | 450 | 443 | 449
[3] | 390 | 394 | 412

O=C1c2c(O)cc(O)cc2O[C@H](c2cc(O)c(O)c(O)c2)[C@H]1O
AUC of viability dose-response curve
Settings | [1] | [2] | [3]
HPLM + 10% dialyzed FBS | 426 | 430 | 456
RPMI 5 mM glucose + 10% FBS | 410 | 461 | 452
RPMI 5 mM glucose + 10% dialyzed FBS | 420 | 453 | 455

Cc1cc(-c2ncc(CC(=O)Nc3ccc(-c4cnccn4)cn3)cc2C)ccn1
AUC of viability dose-response curve
Settings | [1] | [2] | [3]
HPLM + 10% dialyzed FBS | 462 | 445 | 458
RPMI 5 mM glucose + 10% FBS | 458 | 466 | 439
RPMI 5 mM glucose + 10% dialyzed FBS | 457 | 447 | 456

CCCCCCCCCCCCCCCC(=O)O[C@@H]1[C@@H](O)[C@@H](O)[C@@H]([C@H](NC(=O)[C@@H]2C[C@@H](CCC)CN2C)[C@H](C)Cl)O[C@@H]1SC.Cl
AUC of viability dose-response curve
Settings | [1] | [2] | [3]
HPLM + 10% dialyzed FBS | 470 | 426 | 452
RPMI 5 mM glucose + 10% FBS | 469 | 423 | 456
RPMI 5 mM glucose + 10% dialyzed FBS | 465 | 425 | 442

O=C(/C=C/C=C/c1ccc2c(c1)OCO2)N1CCCCC1
cell viability [%], [4]
Settings | HPLM + 10% dialyzed FBS | RPMI 5 mM glucose + 10% dialyzed FBS
0.000781 µM | 129 | 114
0.00234 µM | 119 | 129
0.00702 µM | 125 | 103
0.0211 µM | 127 | 157
0.0632 µM | 139 | 146
0.19 µM | 128 | 129
0.569 µM | 116 | 150
1.71 µM | 133 | 131
5.12 µM | 132 | 167
15.4 µM | 119 | 140
46.1 µM | 87.1 | 108

AUC of viability dose-response curve
Settings | [1] | [2] | [3]
HPLM + 10% dialyzed FBS | 466 | 429 | 446
RPMI 5 mM glucose + 10% FBS | 448 | 444 | 463
RPMI 5 mM glucose + 10% dialyzed FBS | 456 | 448 | 467

COC/1=C/[C@@H]2[C@@H]3CC4=C(C(=C(OC)C=C4)O)[C@]2(CCN3C)CC1=O
cell viability [%]
Settings | HPLM + 10% dialyzed FBS | RPMI 5 mM glucose + 10% FBS | RPMI 5 mM glucose + 10% dialyzed FBS
[4], 0.000781 µM | 116 | – | 106
[4], 0.00234 µM | 121 | – | 128
[4], 0.00702 µM | 130 | – | 121
[4], 0.0211 µM | 122 | – | 116
[4], 0.0632 µM | 133 | – | 135
[4], 0.19 µM | 139 | – | 139
[4], 0.569 µM | 135 | – | 146
[4], 1.71 µM | 119 | – | 127
[4], 5.12 µM | 128 | – | 122
[4], 15.4 µM | 115 | – | 137
[4], 46.1 µM | 129 | – | 125
[5], 0.000781 µM | 117 | 118 | –
[5], 0.00234 µM | 123 | 124 | –
[5], 0.00702 µM | 151 | 135 | –
[5], 0.0211 µM | 147 | 165 | –
[5], 0.0632 µM | 151 | 144 | –
[5], 0.19 µM | 135 | 148 | –
[5], 0.569 µM | 147 | 148 | –
[5], 1.71 µM | 161 | 139 | –
[5], 5.12 µM | 135 | 153 | –
[5], 15.4 µM | 131 | 141 | –
[5], 46.1 µM | 113 | 126 | –

AUC of viability dose-response curve
Settings | [1] | [2] | [3]
HPLM + 10% dialyzed FBS | 472 | 476 | 473
RPMI 5 mM glucose + 10% FBS | 469 | 459 | 467
RPMI 5 mM glucose + 10% dialyzed FBS | 464 | 471 | 466
